Source: patent US11851459B2, “Methods and uses of modulators of anaphase promoting complex (APC) activity for treating cancer” (University of Saskatchewan, priority 2018, dated 2023)
Entries after “also recorded” stand apart in the source; their conditions may differ.

Columns and labels:
[1] = system: MCF7 breast cancer cells selected for resistance to Tamoxifen; test: Cell viability by Trypan Blue, Tamoxifen resistant MCF7 cells; assay type: cell-based, human
Description: (§1) Parental MCF7 human breast cancer cells, or cells selected for resistance to Tamoxifen, were treated with 1 or 5 uM M2I-1. Tamoxifen resistant cells were also treated with both DOX and M2I-1. Cell viability was measured using Trypan Blue staining (3 rpts). B. Protein lysates were prepared from the cells used in A. The APC target HURP was measured using antibodies against HURP. C. Trypan Blue was used to measure viability of parental and DOX resistant OSW canine lymphoma cells pretreated with 1 or 5 μM M2I-1 (18 hrs), followed by 1 μM DOX (48 hrs). Parental cells were only treated with monotherapy (3 rpts). ND, no data. D. OSW matched cells treated with the APC activator M2I-1 were prepared for APC substrate westerns E. Quantification of western protein abundance (3 rpts).
(§2) Human MCF7 breast cancer cells selected for resistance to Tamoxifen were treated with the M2I-1 activator in culture.

APC (substrate HURP) = test: APC substrate westerns, Tamoxifen resistant MCF7 cells; assay type: cell-based, human
Description: as §1, §2

[2] = system: OSW dog lymphoma cells selected for chemotherapeutic resistance; test: Cell viability by Trypan Blue, DOX resistant OSW cells; assay type: cell-based, canine; conditions: 1 or 5 μM 18 hrs then 1 μM DOX 48 hrs
Description: as §1, §2

[3] = system: patient derived xenografted (PDX) tumor; test: Patient derived xenograft (4-28 PDX) triple negative breast cancer mouse model; assay type: in vivo
Source text: A. In vivo study of M2I-1 impact on a human patient derived xenografted breast tumor (4-28 PDX). An increased dose of M2I-1 was given to mice harboring implanted 4-28 tumor fragments ([…] i.p. injection (treatment) versus mock (DMSO) day 1, with tumor size measured every other day. B. Western analysis of apoptosis (PARP cleavage—24 kDa band) and APC substrate abundance (Cyclin B) in liver and tumor of treated and control after sacrifice on Day 8.
(§3) A mouse model for growing patient derived breast tumor cells obtained from a patient with triple negative breast cancer was developed. This patient had developed resistance to Doxorubicin. Tumors growing in these mice grow rapidly. Mice growing the patient derived xenografted (PDX) tumor were injected with various amounts of M2I-1. […] Since the APC was activated in the canines tested in this study following treatment with metformin, it was asked if metformin can directly activate the APC. Reduced APC substrate Cyclin B levels following metformin treatment in human MCF7 breast cancer cells was observed, similar to that observed when MDF7 cells express the C43-4 plasmid (see below for more on this plasmid) (FIG. 21).

MDA-MB-231 cells = test: Scratch assay, migration of MDA-MB-231 cells; assay type: cell-based, human
Description: A. An equal number of MDA-MB-231 TNBC cells were grown to confluence in 6 well plates. The cells were then treated with increasing doses of metformin (0, 1, 5 and 10 mM) and a scratch was made in the cell lawn creating a void. At the times shown the number of cell that migrated into the void were counted. The experiment was repeated twice. B. WT MDA-MB-231 cells and cells stably expressing the C43-4 plasmid were grown as in A. Control cells were left untreated, with other cells treated with the DMSO control, 1 uM DOX or 2.5 uM M2I-1. A void was created in the cell lawn and the number of cells that entered the void were scored as above. This experiment was repeated 4 times. This experiment was also repeated 4 times in an independently generated stable C43-4 cell line with similar results. The error of the mean is shown. C. WT and MDA-MB-231 cells stably expressing the C2-4B peptide plasmid were used for the scratch assay as described above. D. WT and MDA-MB-231 cells stably expressing the C13-3 peptide plasmid were used for the scratch assay as described above. The experiments in C and D were only performed once.
Assays using WT and C43-4 expressing cells have been done 4 times. Assays using C13-3 and C2-4B cells have only been conducted once. Metformin treated cells have been used twice. For scratch assays, a scratch is made down a confluent plate of cells, leaving a void. The number of cells that migrate back into the void over time is determined.

drug resistant lymphoma = test: Canine model of drug resistant lymphoma, metformin adjunct therapy; assay type: in vivo
Description: Enrolled companion canines that presented to the Western College of Veterinary Medicine in Saskatoon with lymphoma that had failed CHOP therapy were enrolled in the study. Canine lymphoma is very common, almost always results in a drug resistant form, and is treated identically in humans and canines.
Each week tumor tissue was received to use for western determination of MDR markers and RNA microarrays.
One canine (canine 6) entered remission after failing all other treatment options. RNA was sampled from the MDR tumor, during metformin treatment, during tumor shrinkage and remission and during relapse and microarray analysis was performed.

APC (substrate Cyclin B) = test: Cyclin B protein levels in MCF7 cells; assay type: cell-based, human; conditions: MCF7, 48 hrs; 1 mM metformin or transient transfection of peptide plasmid
Description: MCF7 breast cancer cells were treated with 1 mM metformin or transiently transfected with an APC activating peptide (C43-4) for 48 hrs, then harvested for assessment of Cyclin B protein levels. Cyclin B is an APC target.
as §3

[4] = system: multiple drug resistant breast cancer; conditions: cited from earlier work
Apc10 = biological target: T1, Apc10 (Saccharomyces cerevisiae, UniProt P53068); test: Yeast 2-hybrid (Y2H) assay, Apc10 bait; assay type: binding
T1 construct: expressed in transfected cells; host or cells: yeast Y2H cells
T1 sequence (P53068 1-250): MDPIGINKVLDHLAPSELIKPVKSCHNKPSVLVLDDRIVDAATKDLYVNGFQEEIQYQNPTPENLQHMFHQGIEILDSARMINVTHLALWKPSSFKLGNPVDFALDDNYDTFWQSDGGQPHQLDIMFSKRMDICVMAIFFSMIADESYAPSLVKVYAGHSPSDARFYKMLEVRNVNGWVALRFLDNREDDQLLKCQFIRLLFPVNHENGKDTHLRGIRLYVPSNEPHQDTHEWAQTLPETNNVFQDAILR
Description: The reverse genetic screen utilized a yeast 2-hybrid (Y2H) protocol that selected for peptides that bound to the APC subunits Apc5 or Apc10 (see FIG. 8 for APC structure), to assess whether peptide-binding might modify APC function. Peptides that bound APC subunits were then assayed for those that suppressed APC mutant defects.
A library of random small peptides were cloned into a Thioredoxin (Trx) scaffold (see FIG. 9 for Trx-peptide structure) and expressed from a galactose-inducible Y2H prey vector in cells expressing the Apc10 bait vector (the modified Apc10 is still part of the complete APC complex). Six peptides that reproducibly interacted with the Apc10 bait construct in Y2H assays were identified (FIG. 1A) and were examined further. Cells will only grow in this assay if the peptide interacts with Apc5 or Apc10.
To identify peptides that bound to either Apc5 or Apc10 proteins using a yeast 2-hybrid (Y2H) screen, random small peptides were cloned into the TrxA scaffold (library provided by R. Geyer; FIG. 9) and expressed from a galactose-inducible Y2H prey vector in cells harboring either the APC5 or APC10 genes cloned into the Y2H bait vectors (APC5/APC10 bait constructs complement APC mutant defects).
Over 100 peptides that bound either Apc5 or Apc10 were recovered from millions screened. Six peptides that reproducibly interacted with the Apc5 or Apc10 bait construct in Y2H assays were examined further. Vectors expressing these 6 peptides were transformed into WT or APC mutant cells and assessed for ts growth.

wild type (WT) cells = test: C43-4 mutant peptides, spot dilution under temperature and UV stress, WT cells; assay type: cell-based, yeast; conditions: low level expression on glucose
Description: The cells were exposed to 5 sec of UV from a UV box prior to incubation. The plus signs define growth compared to the empty vector control.
Residues 2, 7, 8, 10, 12 and 14 of peptide C43-4 are conserved with Htz1. All of these residues were mutated to alanine (FIG. 10). Peptides that contained mutations designed to determine which amino acids were required for function were generated. These mutant peptides were grown in wild type cells and in cells that had APC10 mutated, under temperature and UV stress conditions (FIGS. 10-12).
These cells were spot diluted on Trp^− plates and grown at the temperatures shown and/or exposed to ultraviolet (UV) irradiation (FIGS. 10-12). At low level expression on glucose, some of the mutations caused stress dependent phenotypes.
• 1. Cells were cultured overnight in Trp^− 2% glucose media • 2. The growth of the cells was determined by measuring the optical density (OD) of the cells at 600 nm (OD600) • 3. Cells were diluted to OD600 of 1 with fresh culture media • 4. 100 ul of each culture was pipetted into a well of a 96 well plate • 5. 10 ul of the each starting culture was pipetted into 90 ul of water in 4 additional wells to make a 10-fold serial spot dilution • 6. 5 ul from each serial dilution was spotted onto plates containing standard growth media with either 2% glucose or 2% galactose using a multi-pipettor • 7. The plates were exposed to UV • 8. […]

apc10Δ cells = test: C43-4 mutant peptides, spot dilution under temperature and UV stress, apc10Δ cells; assay type: cell-based, yeast; conditions: glucose or galactose
Description: The cells were exposed to 5 sec of UV from a UV box prior to incubation.
Expression of the WT and mutant peptides have reduced activity in apc10Δ cells (FIG. 12).
• 1. Cells were cultured overnight in Trp^− 2% glucose media • 2. The growth of the cells was determined by measuring the optical density (OD) of the cells at 600 nm (OD600) • 3. Cells were diluted to OD600 of 1 with fresh culture media • 4. 100 ul of each culture was pipetted into a well of a 96 well plate • 5. 10 ul of the each starting culture was pipetted into 90 ul of water in 4 additional wells to make a 10-fold serial spot dilution • 6. 5 ul from each serial dilution was spotted onto plates containing standard growth media with either 2% glucose or 2% galactose using a multi-pipettor • 7. The plates were exposed to UV • 8. The plates were then placed at room temperature, 30, or 37° C. for 3-7 days • 9. The plates were scanned and saved as tiff files

| Compound | cell killing / toxicity in combination with chemotherapy (DOX) ([1]; Tamoxifen resistant MCF7) | growth / toxicity of activator alone ([1]; Tamoxifen resistant MCF7, 1 or 5 uM, 18 hrs) | levels of APC substrates (APC (substrate HURP)) | cell killing by chemotherapy only in presence of activator [2] | tumor growth ([3]; PDX TNBC in mice, i.p. injection, various amounts) | markers of APC substrates in the tumor ([3]; western, Cyclin B, Day 8) | metastatic potential / in vitro migration (MDA-MB-231 cells) | APC substrate RNA levels (drug resistant lymphoma; canine 6, microarray) | markers of multiple drug resistance (drug resistant lymphoma; canine tumor tissue, westerns) | remission (drug resistant lymphoma; one canine (canine 6)) | APC substrate Cyclin B protein levels (APC (substrate Cyclin B)) | multiple drug resistant breast cancer in vitro [4] | binds Apc10 in a yeast 2 hybrid assay (Apc10) | stress resistance (growth compared to empty vector) (wild type (WT) cells) | activity / toxicity of peptide in apc10Δ cells (apc10Δ cells) |
| --- | --- | --- | --- | --- | --- | --- | --- | --- | --- | --- | --- | --- | --- | --- | --- |
| CC(C)CN(CC(C)C)c1ccc(C=C2C(=O)NC(=S)NC2=O)cc1[N+](=O)[O-] [M2I-1, Mad2 Inhibitor-1] | only in the presence of M2I-1 were cells killed; also recorded: enhances toxicity | did not impair the growth; also recorded: not toxic | reduced the levels of several APC substrates tested | observed | stalled in these cells in a dose-dependent manner | positive for APC activation | inhibit the in vitro migration | – | – | – | – | – | – | – | – |
| CN(C)C(=N)N=C(N)N [metformin] | – | – | – | – | – | – | blocked | reduced APC substrate RNA levels | reverse markers of multiple drug resistance | induced remission | Reduced | prevents and reverses | – | – | – |
| NGSSHNDARVRRLTLISRLC [C43-4-3, alanine at position 8 of C43-4] | – | – | – | – | – | – | – | – | – | – | – | – | binds Apc10 | increased stress resistance further | remained toxic |
